Data from ChEMBL document CHEMBL1773000, “Synthesis and biological activity of 22-deoxo-23-oxa analogues of saponin OSW-1” (J Med Chem, 2011).
Active and inactive are the calls of the source. The calls are words filed in the database; no cut-off is given here.

Key:
[1] = Cytotoxicity against human T98 cells assessed as viable cells after 72 hrs by calcein AM assay; assay type: functional, cell-based; details: T98, 72 h
A549 = test: Cytotoxicity against human A549 cells assessed as viable cells after 72 hrs by calcein AM assay; assay type: functional, cell-based; details: A549, 72 h
BJ = test: Cytotoxicity against human BJ cells assessed as viable cells after 72 hrs by calcein AM assay; assay type: cell-based
G-361 = test: Cytotoxicity against human G361 cells assessed as viable cells after 72 hrs by calcein AM assay; assay type: functional, cell-based; details: G-361, 72 h
MCF7 = test: Cytotoxicity against human MCF7 cells assessed as viable cells after 72 hrs by calcein AM assay; assay type: functional, cell-based; details: MCF7, 72 h
HeLa = test: Cytotoxicity against human HeLa cells assessed as viable cells after 72 hrs by calcein AM assay; assay type: functional, cell-based
CCRF-CEM [2] = test: Cytotoxicity against human CEM cells assessed as viable cells after 72 hrs by calcein AM assay; assay type: functional, cell-based
HOS = test: Cytotoxicity against human HOS cells assessed as viable cells after 72 hrs by calcein AM assay; assay type: functional, cell-based
HCT-116 = test: Cytotoxicity against human HCT116 assessed as viable cells after 72 hrs by calcein AM assay; assay type: functional, cell-based; details: HCT-116, 72 h
CCRF-CEM [3] = test: Induction of apoptosis in human CEM cells assessed as effect on […] protein expression at 5 to 10 uM after 24 hrs by Western blot analysis relative to untreated control; assay type: functional, cell-based
CCRF-CEM [4] = test: Induction of apoptosis in human CEM cells assessed as increase in Bcl-2 protein level after 24 hrs by Western blot analysis relative to untreated control; assay type: functional, cell-based
CCRF-CEM [5] = test: Induction of apoptosis in human CEM cells assessed as cleavage of PARP at 5 to 10 uM after 24 hrs by Western blot analysis relative to untreated control; assay type: functional, cell-based
CCRF-CEM [6] = test: Induction of apoptosis in human CEM cells assessed as increase in caspase-7 activity using Ac-DEVD-AMC as a substrate at 7.5 uM after 24 hrs by fluorescence microplate reader assay relative to untreated control; assay type: functional
CCRF-CEM [7] = test: Induction of apoptosis in human CEM cells assessed as effect on retinoblastoma protein expression at 5 to 10 uM after 24 hrs by Western blot analysis relative to untreated control; assay type: functional, cell-based
CCRF-CEM [8] = test: Induction of cell cycle arrest in human CEM cells assessed as reduction in accumulation of cells at G0/G1-phase after 24 hrs by flow cytometric analysis relative to untreated control; assay type: functional, cell-based
CCRF-CEM [9] = test: Induction of apoptosis in human CEM cells assessed as increase in amount of DNA at subG1-phase after 24 hrs by flow cytometric analysis relative to untreated control; assay type: functional, cell-based
CCRF-CEM [10] = test: Induction of cell cycle arrest in human CEM cells assessed as increase in accumulation of cells at S-phase after 24 hrs by flow cytometric analysis relative to untreated control; assay type: functional, cell-based
CCRF-CEM [11] = test: Induction of cell cycle arrest in human CEM cells assessed as increase in accumulation of cells at G2/M-phase after 24 hrs by flow cytometric analysis relative to untreated control; assay type: functional, cell-based
CCRF-CEM [12] = test: Induction of apoptosis in human CEM cells assessed as increase in caspase-7 activity using Ac-DEVD-AMC as a substrate at 10 uM after 24 hrs by fluorescence microplate reader assay relative to untreated control; assay type: functional
CCRF-CEM [13] = test: Induction of apoptosis in human CEM cells assessed as increase in caspase-3 activity using Ac-DEVD-AMC as a substrate at 10 uM after 24 hrs by fluorescence microplate reader assay relative to untreated control; assay type: functional
CCRF-CEM [14] = test: Induction of apoptosis in human CEM cells assessed as accumulation of caspase-3 after 24 hrs by Western blot analysis relative to untreated control; assay type: functional, cell-based
CCRF-CEM [15] = test: Induction of apoptosis in human CEM cells assessed as increase in caspase-3 activity using Ac-DEVD-AMC as a substrate at 7.5 uM after 24 hrs by fluorescence microplate reader assay relative to untreated control; assay type: functional

SMILES	IC50 [1]	IC50 (A549)	IC50 (BJ)	IC50 (G-361)	IC50 (MCF7)	IC50 (HeLa)	IC50 (CCRF-CEM [2])	IC50 (HOS)	IC50 (HCT-116)	other results
CC(C)CCC(=O)[C@@H](C)[C@@]1(O)[C@@H](O)C[C@H]2[C@@H]3CC=C4C[C@@H](O)CC[C@]4(C)[C@H]3CC[C@@]21C	> 50 µM	> 50 µM	> 50 µM	> 50 µM	> 50 µM	> 50 µM	> 50 µM	> 50 µM	> 50 µM	–
CCCCCCCCC(=O)OC[C@@H](C)[C@@]1(O)[C@@H](O[C@@H]2OC[C@H](O)[C@H](O[C@@H]3OC[C@@H](O)[C@H](O)[C@H]3OC(=O)c3ccc(OC)cc3)[C@H]2OC(C)=O)C[C@H]2[C@@H]3CC=C4C[C@@H](O)CC[C@]4(C)[C@H]3CC[C@@]21C	0.011 µM	0.59 µM	0.007 µM	0.015 µM	0.026 µM	0.047 µM	0.0072 µM	2.8 µM	4.9 µM	–
CCCCC(=O)OC[C@@H](C)[C@@]1(O)[C@@H](O[C@@H]2OC[C@H](O)[C@H](O[C@@H]3OC[C@@H](O)[C@H](O)[C@H]3OC(=O)c3ccc(OC)cc3)[C@H]2OC(C)=O)C[C@H]2[C@@H]3CC=C4C[C@@H](O)CC[C@]4(C)[C@H]3CC[C@@]21C	–	0.16 µM	0.5 µM	0.39 µM	0.5 µM	0.17 µM	0.06 µM	–	–	–
CCCCCCC(=O)OC[C@@H](C)[C@@]1(O)[C@@H](O[C@@H]2OC[C@H](O)[C@H](O[C@@H]3OC[C@@H](O)[C@H](O)[C@H]3OC(=O)c3ccc(OC)cc3)[C@H]2OC(C)=O)C[C@H]2[C@@H]3CC=C4C[C@@H](O)CC[C@]4(C)[C@H]3CC[C@@]21C	–	0.02 µM	0.6 µM	1.28 µM	0.4 µM	0.03 µM	0.01 µM	–	–	–
COc1ccc(C(=O)O[C@H]2[C@H](O[C@@H]3[C@@H](OC(C)=O)[C@H](O[C@H]4C[C@H]5[C@@H]6CC=C7C[C@@H](O)CC[C@]7(C)[C@H]6CC[C@]5(C)[C@@]4(O)[C@H](C)COCc4ccccc4)OC[C@@H]3O)OC[C@@H](O)[C@@H]2O)cc1	–	0.1 µM	0.3 µM	0.75 µM	0.6 µM	0.2 µM	0.02 µM	–	–	–
COc1ccc(C(=O)O[C@H]2[C@H](O[C@@H]3[C@@H](OC(C)=O)[C@H](O[C@H]4C[C@H]5[C@@H]6CC=C7C[C@@H](O)CC[C@]7(C)[C@H]6CC[C@]5(C)[C@@]4(O)[C@H](C)C(=O)CCC(C)C)OC[C@@H]3O)OC[C@@H](O)[C@@H]2O)cc1	0.07 µM	0.027 µM	0.0002 µM	1 µM	0.0024 µM	0.0034 µM	0.0003 µM	8.2 µM	8.4 µM	–
COc1ccc(C(=O)O[C@H]2[C@H](O[C@@H]3[C@@H](OC(C)=O)[C@H](O[C@H]4C[C@H]5[C@@H]6CC=C7C[C@@H](O)CC[C@]7(C)[C@H]6CC[C@]5(C)[C@@]4(O)[C@H](C)COC(=O)c4ccccc4)OC[C@@H]3O)OC[C@@H](O)[C@@H]2O)cc1	–	0.17 µM	0.1 µM	1.66 µM	0.7 µM	–	0.07 µM	–	–	–
CCCCCCCCCCCCCCCCCC(=O)OC[C@@H](C)[C@@]1(O)[C@@H](O[C@@H]2OC[C@H](O)[C@H](O[C@@H]3OC[C@@H](O)[C@H](O)[C@H]3OC(=O)c3ccc(OC)cc3)[C@H]2OC(C)=O)C[C@H]2[C@@H]3CC=C4C[C@@H](O)CC[C@]4(C)[C@H]3CC[C@@]21C	0.21 µM	0.55 µM	0.08 µM	0.3 µM	0.195 µM	0.435 µM	0.058 µM	> 50 µM	> 50 µM	–
C/C=C/C(=O)OC[C@@H](C)[C@@]1(O)[C@@H](O[C@@H]2OC[C@H](O)[C@H](O[C@@H]3OC[C@@H](O)[C@H](O)[C@H]3OC(=O)c3ccc(OC)cc3)[C@H]2OC(C)=O)C[C@H]2[C@@H]3CC=C4C[C@@H](O)CC[C@]4(C)[C@H]3CC[C@@]21C	0.94 µM	0.55 µM	0.23 µM	0.89 µM	0.84 µM	1.94 µM	0.34 µM	> 50 µM	> 50 µM	Activity (CCRF-CEM [3]): inactive; Activity (CCRF-CEM [4]): Dose-dependent effect; Activity (CCRF-CEM [5]): Active; fold change (FC) (CCRF-CEM [6]): 3; Activity (CCRF-CEM [7]): inactive; Activity (CCRF-CEM [8]): Dose-dependent effect; Activity (CCRF-CEM [9]): Active; Activity (CCRF-CEM [10]): Dose-dependent effect; Activity (CCRF-CEM [11]): Dose-dependent effect; fold change (FC) (CCRF-CEM [12]): 3; fold change (FC) (CCRF-CEM [13]): 3; Activity (CCRF-CEM [14]): Dose-dependent effect; fold change (FC) (CCRF-CEM [15]): 3
CCCCCCCCCCCCCC(=O)OC[C@@H](C)[C@@]1(O)[C@@H](O[C@@H]2OC[C@H](O)[C@H](O[C@@H]3OC[C@@H](O)[C@H](O)[C@H]3OC(=O)c3ccc(OC)cc3)[C@H]2OC(C)=O)C[C@H]2[C@@H]3CC=C4C[C@@H](O)CC[C@]4(C)[C@H]3CC[C@@]21C	0.028 µM	0.72 µM	0.083 µM	0.03 µM	0.048 µM	0.067 µM	0.016 µM	2.7 µM	2.8 µM	–
CCCCCCCCCCCC(=O)OC[C@@H](C)[C@@]1(O)[C@@H](O[C@@H]2OC[C@H](O)[C@H](O[C@@H]3OC[C@@H](O)[C@H](O)[C@H]3OC(=O)c3ccc(OC)cc3)[C@H]2OC(C)=O)C[C@H]2[C@@H]3CC=C4C[C@@H](O)CC[C@]4(C)[C@H]3CC[C@@]21C	0.007 µM	0.93 µM	0.005 µM	0.008 µM	0.021 µM	0.042 µM	0.0063 µM	1.9 µM	2.8 µM	–
C=CCCCCC(=O)OC[C@@H](C)[C@@]1(O)[C@@H](O[C@@H]2OC[C@H](O)[C@H](O[C@@H]3OC[C@@H](O)[C@H](O)[C@H]3OC(=O)c3ccc(OC)cc3)[C@H]2OC(C)=O)C[C@H]2[C@@H]3CC=C4C[C@@H](O)CC[C@]4(C)[C@H]3CC[C@@]21C	0.043 µM	0.84 µM	0.02 µM	0.044 µM	0.054 µM	0.061 µM	0.021 µM	6.5 µM	11 µM	–
